From ChEMBL document CHEMBL1201862, “PubChem BioAssay data set” (2004)
Calls of active or inactive are those of the source.

Legend:
INS1 = experiment: beta cell apoptosis inhibitors, cytokine rescue, dose response, luminescence, retest (AID 449756); type: functional, cell-based; details: Rattus norvegicus;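 further: cell death triggered by IL-1 beta plus TNF-alpha plus IFN-gamma mixture; protective hits raise ATP signal compared with cytokine alone wells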
[1] = growth suppression of PTEN-null colon cells, dose response, cell-based, HCT116 PTEN knockout (AID 1047); type: functional;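 further: HCT116 colon tumor cells with PTEN knocked out; cells exposed to compound for 60 hours before readout; potency for loss of cell viability measured by luminescence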
[2] = growth suppression of beta-catenin-knockout colon cells, dose response, cell-based, HCT116, human colon tumor (AID 1045); type: functional;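 further: HCT116 colon tumor cells with beta catenin knocked out; cells exposed to compound for 60 hours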
[3] = Luminescence Cell-Based Dose Response HTS to Identify Inhibitors of 5'UTR Stem-Loop Driven Prion Protein mRNA Translation in H4 Neuroglioblastoma Cells. [Related pubchem assays: 1827 (Project Summary), 1813 (Primary HTS)]; type: functional
[4] = inhibitors of firefly luciferase expression or activity, dose response, H4 neuroglioma cells, luminescence (AID 1990); type: functional, cell-based
[5] = inhibitors of SNCA 5'UTR-driven reporter translation, confirmation, H4 neuroglioma cells, luminescence (AID 1988); type: functional, cell-based
[6] = target: DNA dC->dU-editing enzyme APOBEC-3A (Homo sapiens, UniProt P31941); experiment: APOBEC3A DNA deaminase inhibitors, dose response, biochemical (AID 504722); type: functional
Chain of DNA dC->dU-editing enzyme APOBEC-3A (P31941 whole entry): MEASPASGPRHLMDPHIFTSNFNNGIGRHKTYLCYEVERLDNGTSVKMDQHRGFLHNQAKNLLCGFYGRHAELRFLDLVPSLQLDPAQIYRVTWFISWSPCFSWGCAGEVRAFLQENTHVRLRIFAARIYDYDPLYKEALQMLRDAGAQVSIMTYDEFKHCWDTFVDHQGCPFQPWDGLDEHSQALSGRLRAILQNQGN

[7] = target: DNA dC->dU-editing enzyme APOBEC-3G (Homo sapiens, UniProt Q9HC16); experiment: Dose Response confirmation of small molecule APOBEC3G DNA Deaminase Inhibitors via a fluorescence-based single-stranded DNA deaminase assay. [Related pubchem assays (depositor defined):AID493012, AID493028]; type: functional
Chain of DNA dC->dU-editing enzyme APOBEC-3G (Q9HC16 whole entry): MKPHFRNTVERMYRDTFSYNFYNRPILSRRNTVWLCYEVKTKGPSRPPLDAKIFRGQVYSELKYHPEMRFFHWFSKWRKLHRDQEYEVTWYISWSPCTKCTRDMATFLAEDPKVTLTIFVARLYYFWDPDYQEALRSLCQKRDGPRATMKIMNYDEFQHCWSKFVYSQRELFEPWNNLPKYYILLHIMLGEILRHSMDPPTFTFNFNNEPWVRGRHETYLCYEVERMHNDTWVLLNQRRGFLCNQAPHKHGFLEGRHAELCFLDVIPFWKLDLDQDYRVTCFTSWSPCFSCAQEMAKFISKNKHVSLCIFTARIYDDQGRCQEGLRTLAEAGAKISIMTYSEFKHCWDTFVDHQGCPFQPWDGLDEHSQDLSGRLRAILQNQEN

[8] = target: FAD-linked sulfhydryl oxidase ALR (Homo sapiens, UniProt P55789); experiment: inhibitors of human ALR sulfhydryl oxidase, dose response, biochemical, H2O2 detection, luminescence, cherry-pick (AID 493248)
Chain of FAD-linked sulfhydryl oxidase ALR (P55789 whole entry): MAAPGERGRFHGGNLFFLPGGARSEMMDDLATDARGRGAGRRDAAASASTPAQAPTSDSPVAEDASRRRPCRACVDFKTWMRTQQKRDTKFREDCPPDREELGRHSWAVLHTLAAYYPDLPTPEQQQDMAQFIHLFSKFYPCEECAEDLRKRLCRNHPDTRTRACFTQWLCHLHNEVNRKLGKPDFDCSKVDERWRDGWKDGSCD

[9] = target: T1, Histone-lysine N-methyltransferase NSD2 (Homo sapiens, UniProt O96028); type: biochemical
T1 sequence (O96028 whole entry): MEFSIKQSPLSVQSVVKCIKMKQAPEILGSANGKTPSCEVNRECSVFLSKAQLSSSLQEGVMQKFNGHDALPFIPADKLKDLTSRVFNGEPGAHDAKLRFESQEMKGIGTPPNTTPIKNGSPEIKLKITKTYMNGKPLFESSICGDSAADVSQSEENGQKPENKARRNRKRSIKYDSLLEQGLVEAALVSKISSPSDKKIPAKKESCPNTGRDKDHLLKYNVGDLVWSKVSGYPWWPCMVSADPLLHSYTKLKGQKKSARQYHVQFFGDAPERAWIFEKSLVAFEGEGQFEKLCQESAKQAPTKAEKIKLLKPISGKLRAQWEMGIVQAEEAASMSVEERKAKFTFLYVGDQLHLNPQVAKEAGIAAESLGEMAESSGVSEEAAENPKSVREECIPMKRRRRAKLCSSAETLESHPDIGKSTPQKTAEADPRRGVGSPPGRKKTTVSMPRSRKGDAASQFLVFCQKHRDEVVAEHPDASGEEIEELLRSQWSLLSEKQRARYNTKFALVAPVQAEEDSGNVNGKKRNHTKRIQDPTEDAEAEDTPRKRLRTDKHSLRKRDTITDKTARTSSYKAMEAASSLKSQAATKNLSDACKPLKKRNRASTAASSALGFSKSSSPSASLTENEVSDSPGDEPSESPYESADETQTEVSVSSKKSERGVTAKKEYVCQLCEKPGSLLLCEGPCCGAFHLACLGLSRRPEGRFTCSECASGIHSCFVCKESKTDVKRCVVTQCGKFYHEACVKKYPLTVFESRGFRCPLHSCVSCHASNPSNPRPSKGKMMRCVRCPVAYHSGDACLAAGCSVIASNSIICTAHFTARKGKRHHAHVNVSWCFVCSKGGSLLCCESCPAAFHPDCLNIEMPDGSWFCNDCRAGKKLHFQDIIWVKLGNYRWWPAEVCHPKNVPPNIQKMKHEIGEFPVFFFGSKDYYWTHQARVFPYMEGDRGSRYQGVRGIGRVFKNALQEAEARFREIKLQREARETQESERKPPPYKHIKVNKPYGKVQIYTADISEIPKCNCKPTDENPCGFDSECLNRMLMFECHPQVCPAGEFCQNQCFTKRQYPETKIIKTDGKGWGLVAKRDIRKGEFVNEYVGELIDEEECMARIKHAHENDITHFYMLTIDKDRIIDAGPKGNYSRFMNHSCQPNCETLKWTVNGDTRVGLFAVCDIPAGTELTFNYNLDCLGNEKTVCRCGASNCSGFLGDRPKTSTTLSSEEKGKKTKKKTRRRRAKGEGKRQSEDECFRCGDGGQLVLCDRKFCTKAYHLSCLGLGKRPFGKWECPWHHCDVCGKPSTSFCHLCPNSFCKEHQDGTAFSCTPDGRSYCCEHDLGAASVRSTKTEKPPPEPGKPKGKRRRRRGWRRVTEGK

[10] = Luminescence Cell-Based Dose Confirmation to Identify Activators of 5'UTR Stem-Loop Driven Alpha-Synuclein mRNA Translation in H4 Neuroglioblastoma Cells. [Related pubchem assays: 1829 (Project Summary), 1814 (Primary HTS)]; type: functional
[11] = Luminescence Cell-Based Dose Response HTS to Identify Activators of Luciferase Translation or Activity in H4 […] Cells. [Related pubchem assays: 1829 (Project Summary), 1814 (Primary HTS)]; type: functional
[12] = Luminescence Cell-Based Dose Response to Identify Activators of Luciferase Translation or Activity in H4-C Neuroglioblastoma Cells. [Related pubchem assays: 1829 (Project Summary), 1814 (Primary HTS)]; type: functional
H4 = experiment: Luminescence Cell-Based Dose Response HTS to Identify Activators of 5'UTR Stem-Loop Driven Prion Protein mRNA Translation in H4 Neuroglioblastoma Cells. [Related pubchem assays: 1829 (Project Summary), 1814 (Primary HTS)]; type: functional; details: Homo sapiens
[13] = Luminescence Cell-Based Dose Response to Identify Activators of 5'UTR Stem-Loop Driven Prion Protein mRNA Translation in H4-C Neuroglioblastoma Cells. [Related pubchem assays: 1829 (Project Summary), 1814 (Primary HTS)]; type: functional
[14] = Luminescence Cell-Based Dose Confirmation HTS to Identify Activators of 5'UTR Stem-Loop Driven Alpha-Synuclein mRNA Translation in H4 Neuroglioblastoma Cells. [Related pubchem assays: 1829 (Project Summary), 1814 (Primary HTS)]; type: functional
[15] = target: T2, Rac GTPase-activating protein 1 (Homo sapiens, UniProt Q9H0H5); experiment: MgcRacGAP GTPase-activating activity inhibitors, confirmation, biochemical, ADP Hunter fluorescence, primary and confirmatory (AID 624330); type: functional
T2 sequence (Q9H0H5 whole entry): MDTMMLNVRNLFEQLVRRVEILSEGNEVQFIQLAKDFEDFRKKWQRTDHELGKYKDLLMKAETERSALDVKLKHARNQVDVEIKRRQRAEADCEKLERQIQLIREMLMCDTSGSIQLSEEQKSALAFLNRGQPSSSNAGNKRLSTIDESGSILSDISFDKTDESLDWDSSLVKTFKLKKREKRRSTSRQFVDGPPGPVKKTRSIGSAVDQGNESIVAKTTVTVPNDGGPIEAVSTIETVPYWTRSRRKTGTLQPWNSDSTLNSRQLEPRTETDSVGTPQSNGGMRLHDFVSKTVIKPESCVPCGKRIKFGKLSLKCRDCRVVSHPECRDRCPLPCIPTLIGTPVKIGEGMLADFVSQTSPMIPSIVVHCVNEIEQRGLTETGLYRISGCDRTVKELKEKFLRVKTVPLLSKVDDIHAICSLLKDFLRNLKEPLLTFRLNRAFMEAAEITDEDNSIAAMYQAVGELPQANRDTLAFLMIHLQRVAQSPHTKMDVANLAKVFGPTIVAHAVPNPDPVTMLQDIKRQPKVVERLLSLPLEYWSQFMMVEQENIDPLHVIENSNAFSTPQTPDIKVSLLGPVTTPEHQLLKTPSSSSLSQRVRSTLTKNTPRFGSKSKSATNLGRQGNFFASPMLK

[16] = target: G-protein coupled receptor 55 (Homo sapiens, UniProt Q9Y2T6); experiment: GPR55 antagonists blocking LPI-driven arrestin recruitment, primary screen, imaging, U2OS, beta-arrestin-GFP, LPI agonist (AID 2013); type: functional;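 further: antagonist potency measured as reduced agonist-driven arrestin aggregation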
Chain of G-protein coupled receptor 55 (Q9Y2T6 whole entry): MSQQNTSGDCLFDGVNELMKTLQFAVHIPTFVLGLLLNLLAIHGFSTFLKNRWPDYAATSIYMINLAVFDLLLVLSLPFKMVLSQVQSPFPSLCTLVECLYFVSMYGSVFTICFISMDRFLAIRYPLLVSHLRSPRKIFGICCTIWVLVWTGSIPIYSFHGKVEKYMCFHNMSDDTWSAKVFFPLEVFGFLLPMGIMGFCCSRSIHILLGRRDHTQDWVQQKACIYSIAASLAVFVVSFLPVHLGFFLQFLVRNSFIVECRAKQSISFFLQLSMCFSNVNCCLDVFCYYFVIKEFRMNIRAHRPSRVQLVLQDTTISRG

Leucine aminopeptidase = target: T3, Leucine aminopeptidase (Plasmodium falciparum 3D7, UniProt Q8IL11); experiment: P. falciparum M17LAP inhibitors, primary screen, biochemical, fluorogenic H-Leu-NHMec substrate, 1536-well (AID 1619); type: functional
T3 sequence (Q8IL11 whole entry): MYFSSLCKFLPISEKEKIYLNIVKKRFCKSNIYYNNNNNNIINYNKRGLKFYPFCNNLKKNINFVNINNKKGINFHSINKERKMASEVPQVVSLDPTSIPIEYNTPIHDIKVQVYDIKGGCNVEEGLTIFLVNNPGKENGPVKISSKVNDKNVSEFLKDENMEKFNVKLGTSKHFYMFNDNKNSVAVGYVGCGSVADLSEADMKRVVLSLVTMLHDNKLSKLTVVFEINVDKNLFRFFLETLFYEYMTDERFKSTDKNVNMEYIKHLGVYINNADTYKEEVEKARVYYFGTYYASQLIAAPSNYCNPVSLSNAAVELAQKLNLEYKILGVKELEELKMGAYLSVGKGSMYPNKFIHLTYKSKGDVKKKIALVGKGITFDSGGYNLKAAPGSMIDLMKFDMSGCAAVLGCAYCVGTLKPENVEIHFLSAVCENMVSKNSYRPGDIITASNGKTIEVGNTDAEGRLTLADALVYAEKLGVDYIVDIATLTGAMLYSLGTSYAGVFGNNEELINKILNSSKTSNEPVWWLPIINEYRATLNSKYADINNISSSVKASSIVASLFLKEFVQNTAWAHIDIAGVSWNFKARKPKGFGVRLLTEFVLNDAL

[17] = IGROV1 ovarian cancer cell cytotoxicity, dose response, PAX8 inhibitor project, plate reader, dry powder samples (AID 743043); type: functional, cell-based; details: IGROV-1
Paired box protein Pax-8 = Paired box protein Pax-8 (Homo sapiens, UniProt Q06710); experiment: inhibitors of PAX8-driven TPO luciferase reporter, dose response, RMG-I cells, cherry-pick (AID 687027); type: functional, cell-based;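 further: luciferase reporter driven by Pax8 target thyroperoxidase promoter measured by SteadyGlo luminescence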
Chain of Paired box protein Pax-8 (Q06710 whole entry): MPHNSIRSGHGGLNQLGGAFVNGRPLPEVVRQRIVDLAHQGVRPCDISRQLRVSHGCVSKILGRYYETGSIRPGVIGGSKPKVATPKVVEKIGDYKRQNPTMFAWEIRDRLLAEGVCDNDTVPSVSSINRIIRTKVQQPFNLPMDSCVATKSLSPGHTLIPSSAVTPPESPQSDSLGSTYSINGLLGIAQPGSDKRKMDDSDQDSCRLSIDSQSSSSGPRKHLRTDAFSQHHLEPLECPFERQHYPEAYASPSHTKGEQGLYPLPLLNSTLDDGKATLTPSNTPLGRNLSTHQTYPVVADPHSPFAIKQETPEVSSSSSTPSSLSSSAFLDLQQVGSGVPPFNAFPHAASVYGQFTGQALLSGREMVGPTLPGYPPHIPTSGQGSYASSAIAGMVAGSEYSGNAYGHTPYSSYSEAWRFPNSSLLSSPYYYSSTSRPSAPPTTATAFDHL

[18] = NIH:OVCAR-3 ovarian cancer cell cytotoxicity, dose response, PAX8 inhibitor project, plate reader, dry powder samples (AID 743044); type: functional, cell-based
[19] = cytotoxicity in OVCAR8 ovarian cancer cells, dose response, PAX8 project, cell-based, plate reader, dry powder samples (AID 743197); type: functional; details: OVCAR-8

## Cc1cc(C)cc(NC(=O)/C(C#N)=C/c2cn(CC(=O)NCc3ccco3)c3ccccc23)c1
INS1
  AC50: 3.92 µM (active)
[1]
  EC50: 8.2 µM (active)
[2]
  EC50: 10.6 µM (active)

## NC(=O)c1sc2nc3c(c(-c4cccs4)c2c1N)CCCC3
[3]
  EC50: 0.125 µM (active)
[4]
  EC50: < 0.1 µM (active)
[1]
  EC50: 36.5 µM (active)
[2]
  EC50: 118 µM (active)
[5]
  EC50: 16.1 µM (active)

## Nn1c(C2COc3ccccc3O2)n[nH]c1=S (centres undefined)
[6]
  IC50: > 100 µM (inactive)
[7]
  IC50: 5.09 µM (active)

## Sc1nnc(C2CCCCC2)n1/N=C/c1ccccn1
[8]
  AC50: 1.04 µM (active)
[6]
  IC50: > 100 µM (inactive)
[7]
  IC50: 2.23 µM (active)

## CC(=O)NC1=C(N2CC2C)C(=O)C(NC(C)=O)=C(N2CC2C)C1=O (centres undefined)
[9]
  AC50: 10.2 µM (active)

## COC(=O)C1C(=O)c2c([nH]c(C(=O)OCCSC)c2C)CC1C (centres undefined)
[10]
  EC50: > 12 µM (not active)
[11]
  EC50: 21.5 µM (active)
[12]
  EC50: 0.963 µM (active)
H4
  EC50: 31.9 µM (active)
[13]
  EC50: 1.34 µM (active)
[14]
  EC50: < 0.1 µM (active)

## O=C(NC(=S)Nc1nc2c(s1)CCCC2)c1ccccc1
[10]
  EC50: 0.32 µM (active)
[11]
  EC50: 0.143 µM (active)
[12]
  EC50: 0.341 µM (active)
H4
  EC50: < 0.1 µM (active)
[13]
  EC50: 0.313 µM (active)

## Oc1c(C2=CC(C(F)(F)F)=NCCN2)ccc2ccccc12
[10]
  EC50: 0.337 µM (active)
[11]
  EC50: < 0.1 µM (inconclusive)
[12]
  EC50: 0.345 µM (active)
H4
  EC50: < 0.1 µM (active)
[13]
  EC50: 0.364 µM (active)

## COc1ccc(/C=N/n2c(S)nnc2-c2[nH]nc3c2CCC3)c(OC)c1OC
[15]
  IC50: 69.9 µM (active)
[6]
  IC50: > 100 µM (inactive)
[7]
  IC50: 4.64 µM (active)

## Cc1cc(Nc2cccc(F)c2)nc(NCc2ccccc2)n1
INS1
  AC50: 3.9 µM (active)
[1]
  EC50: 11.1 µM (active)
[2]
  EC50: 10.4 µM (active)

## COC(=O)c1ccccc1NC(=S)NC(NC(=O)c1ccco1)C(Cl)(Cl)Cl (centres undefined)
[16]
  IC50: 8.08 µM (active)

## CCC(C)NCCCOc1cc(Cl)ccc1Cl (centres undefined)
[9]
  AC50: > 20 µM (inactive)

## Cn1c(=O)c2ccccc2n2c(S)nnc12
[15]
  IC50: 19.9 µM (active)
[6]
  IC50: > 100 µM (inactive)
[7]
  IC50: 3.8 µM (active)

## COc1ccc(C(=O)C[n+]2ccc3c(c2)nc(-c2ccc(OC)cc2OC)n3C)cc1
[1]
  EC50: 31.2 µM (active)
[2]
  EC50: 22 µM (active)

## CCc1nnc(NS(=O)(=O)c2ccc(NC(=O)/C=C/c3ccc(OC)cc3OC)cc2)s1
[16]
  IC50: 1.44 µM (active)
Leucine aminopeptidase
  IC50: 7.96 µM (active)

## O=C(Nc1cccc(F)c1)N1CCCCN2[C@@H](CO)[C@@H](c3ccc(C#Cc4ccccc4)cc3)[C@@H]2C1
[17]
  AC50: 13.4 µM (active)
Paired box protein Pax-8
  AC50: 10.1 µM (active)
[18]
  AC50: 5.97 µM (active)
[19]
  AC50: 21.4 µM (active)
